Experimental data reported in US10703756B2, “Pyrrolo[2,3-D]pyrimidinyl, pyrrolo[2,3-B]pyrazinyl, pyrrolo[2,3-B]pyridinyl acrylamides and epoxides thereof” (Pfizer Inc., priority 2015, dated 2020).
Read-outs that look alike come from different tables or passages of the source.

Assays:
[1] = biological target: T1, JAK3 enzyme (Homo sapiens, UniProt P52333); experiment: JAK Caliper Enzyme Assay at 4 μM ATP; assay type: biochemical
T1 sequence (P52333 1-1124): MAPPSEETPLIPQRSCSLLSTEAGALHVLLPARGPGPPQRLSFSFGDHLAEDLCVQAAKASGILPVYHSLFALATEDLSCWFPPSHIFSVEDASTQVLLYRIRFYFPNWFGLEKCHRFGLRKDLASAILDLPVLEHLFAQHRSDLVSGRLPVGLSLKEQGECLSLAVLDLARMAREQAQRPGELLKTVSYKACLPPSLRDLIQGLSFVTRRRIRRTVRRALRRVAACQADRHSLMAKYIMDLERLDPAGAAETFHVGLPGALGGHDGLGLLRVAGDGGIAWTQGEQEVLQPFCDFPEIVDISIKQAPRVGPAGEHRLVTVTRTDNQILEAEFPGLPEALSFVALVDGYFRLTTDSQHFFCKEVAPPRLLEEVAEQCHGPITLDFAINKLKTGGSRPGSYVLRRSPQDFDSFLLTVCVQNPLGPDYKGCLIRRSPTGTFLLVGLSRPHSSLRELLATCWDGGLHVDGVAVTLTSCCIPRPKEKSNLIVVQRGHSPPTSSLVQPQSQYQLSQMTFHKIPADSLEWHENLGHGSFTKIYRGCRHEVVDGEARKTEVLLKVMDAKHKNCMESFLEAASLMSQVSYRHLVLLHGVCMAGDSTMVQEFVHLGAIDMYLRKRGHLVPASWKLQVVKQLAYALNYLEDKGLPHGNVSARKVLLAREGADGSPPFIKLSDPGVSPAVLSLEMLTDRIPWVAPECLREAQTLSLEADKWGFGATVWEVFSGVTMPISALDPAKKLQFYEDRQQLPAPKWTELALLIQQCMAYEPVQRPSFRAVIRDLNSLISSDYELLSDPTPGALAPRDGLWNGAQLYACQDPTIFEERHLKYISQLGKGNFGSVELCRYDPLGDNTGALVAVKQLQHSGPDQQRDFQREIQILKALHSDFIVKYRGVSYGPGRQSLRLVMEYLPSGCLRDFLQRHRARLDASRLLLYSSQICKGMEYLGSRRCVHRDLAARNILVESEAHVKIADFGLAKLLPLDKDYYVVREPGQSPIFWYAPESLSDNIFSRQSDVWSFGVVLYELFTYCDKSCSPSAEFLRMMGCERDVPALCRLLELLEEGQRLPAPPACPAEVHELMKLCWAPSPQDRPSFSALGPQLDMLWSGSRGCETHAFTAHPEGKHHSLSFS
Outline: (§1)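 First, compound stocks in DMSO were serially diluted half-log over 11 points, starting at 600 μM. Next, reactions ran with batch-optimized enzyme and timing targeting 20%-30% phosphorylation. Finally, wells were sampled and product separated from substrate peptide electrophoretically.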

[2] = biological target: T1, JAK3 enzyme; experiment: JAK Caliper Enzyme Assay at 1 mM ATP; assay type: biochemical
Outline: as §1

[3] = tested on: IL-15 induced P-STAT5 in human PBMC; experiment: PBMC IL-15 Induced P-STAT5; assay type: cell-based
Method: PBMC IL-15 Induced P-STAT5
Test compounds were serially diluted in DMSO, with further dilution of the compounds in RPMI 1640 medium (Invitrogen #72400) supplemented with 10 mM HEPES, pH 7.4, 1 mM sodium pyruvate, and Penicillin/Streptomycin (by adding 5 μL compound/DMSO in 120 μL Dulbecco's Phosphate-Buffered Saline (D-PBS, 1×), [DMSO]=4%, and mixing the solution by repeated pipetting, 6×). IL-15 was diluted to the concentration at 820 ng/mL in RPMI 1640 medium.
Frozen human PBMC (200-250 million cells/vial) was thawed at 37° C. The cells were transferred to 10 mL warm medium in a 50-mL conical tube, and centrifuged at 1,200 RPM at room temperature for 5 min. The supernatant was aspirated. Cells were suspended in 3 mL warm human plasma and incubated at 37° C. in a tissue culture incubator for 1.5 to 2 h. After adding 47 ml D-PBS (37° C.) to PBMC/FBS suspension, centrifuging at 1,200 RPM at room temperature for 5 min, and aspirating the supernatant, the cells were resuspended in 20 mL warm RPMI medium. Ninety μL of cell suspension were pipetted per well in a 96-well, deep-well, V-bottom plate, and the plate was incubated at 37° C. for 30 min. Five μL of compound were transferred to each well (final 0.2% DMSO), vortex gently and incubate at 37° C. for 15 min; 5 μL 4% DMSO/PBS were added to the control wells. After adding 5 μL 820 ng/mL of human IL-15 (final 41 ng/mL) to each well (5 μL PBS to the control wells), vortexing gently and incubating at 37° C. for 15 min, followed by 0.3 mL 1% paraformaldehyde/PBS (37° C.) to each well, and incubating the plate at room temperature for 15 min, the plates were centrifuged at 1,200 RPM (Beckman GS-6R or Sorvall Legend) at room temperature for 5 min, and the supernatant was aspirated using a 8-channel or 12-channel manifold. After adding 0.8 mL staining buffer per well, the plates were centrifuged at 1,200 RPM (Beckman GS-6R or Sorvall Legend) at room temperature for 5 min, and again the supernatant was aspirated using a 8-channel or 12-channel manifold. The plate was vortexed, and 0.35 mL 90% methanol/10% H2O (−20° C.) was added per well, and the plate incubated on ice for 20 min. After again adding 0.8 mL staining buffer per well, the plates were centrifuged at 1,200 RPM (Beckman GS-6R or Sorvall Legend) at room temperature for 5 min, and again the supernatant was aspirated using a 8-channel or 12-channel manifold, and then 0.8 mL Staining buffer was added per well. After once again adding 0.8 mL staining buffer per well, the plates were centrifuged at 1,200 RPM (Beckman GS-6R or Sorvall Legend) at room temperature for 5 min, and again the supernatant was aspirated using a 8-channel or 12-channel manifold. Then the plate was vortexed, and 250 μL/well of Alexa Fluor® 647 conjugated anti-STAT5 antibody ([…]; […]) was added, and the plate was incubated at 4° C. overnight in the dark. Samples of 250 μL/well were transferred to a 96-well U-bottom plate, and the FACS analysis was performed gating on total lymphocytes. Samples were analyzed using a BD Calibur™ or BD FACSCanto™ flow cytometer equipped with the BD High Throughput Sampler.

[4] = human PBMC, IL-15 final 41 ng/mL, read-out: PBMC IL15_pSTAT5_IC50

Row | IC50 [1] [nM] | IC50 [2] [nM] | SMILES | IC50 [3, 4] [nM] | IC50 ([3]; Homo sapiens, PBMC, read-out: PBMC IL15_pSTAT5_IC50 (nM)) [nM]
1 | 0.8 | 148 | C=CC(=O)N1C[C@@H](Nc2ncnc3[nH]ccc23)C[C@@H](C(=O)N(C)C)C1 (racemic) [Example 94] | 1080 | 
2 | 0.898 | 59 | C=CC(=O)N1CC[C@@H](Nc2cnc3[nH]cc(C(=O)NCC4CC(F)(F)C4)c3n2)[C@@H](OC)C1 [Example 309, 2-{[(3S,4R)-1-acryloyl-3-methoxypiperidin-4-yl]amino}-N-[(3,3-difluorocyclobutyl)methyl]-5H-pyrrolo[2,3-b]pyrazine-7-carboxamide] | 526 | 
3 | 1.16 | 62 | C=CC(=O)N1CC[C@H](Nc2cnc3[nH]cc(C(=O)NC[C@H](C)CC(F)(F)F)c3n2)[C@H](OC)C1 [Example 294, 2-[((3R,4S)-1-acryloyl-3-methoxypiperidin-4-yl)amino]-N-([2R]-4,4,4-trifluoro-2-methylbutyl)-5H-pyrrolo[2,3-b]pyrazine-7-carboxamide] | 575 | 
4 | 0.794 | 103 | C=CC(=O)N1CCN(c2cnc3[nH]cc(C(=O)NC(CC)COC)c3n2)CC1(C)C (racemic) [Example 141, Racemic-2-(4-acryloyl-3,3-dimethylpiperazin-1-yl)-N-(1-methoxybutan-2-yl)-5H-pyrrolo[2,3-b]pyrazine-7-carboxamide] | 347 | 
5 | 1.67 | 255 | C[C@H]1CC[C@@H](Nc2ncnc3[nH]ccc23)CN1C(=O)C1CO1 (mixture of isomers) [Example 132, Racemic-[(2S,5R)-2-methyl-5-(7H-pyrrolo[2,3-d]pyrimidin-4-ylamino)piperidin-1-yl](oxiran-2-yl)methanone] | 524 | 
6 | 2.71 | 384 | C=CC(=O)N1CCN(c2cnc3[nH]cc(C(=O)NC(COC)COC)c3n2)CC1(C)C (racemic) [Example 140, Racemic-2-(4-acryloyl-3,3-dimethylpiperazin-1-yl)-N-(1,3-dimethoxypropan-2-yl)-5H-pyrrolo[2,3-b]pyrazine-7-carboxamide] | 1710 | 
7 | 2.45 | 359 | C=CC(=O)N1CCC(Nc2cnc3[nH]cc(C(=O)NCCCC(F)(F)F)c3n2)CC1C (racemic) [Example 282, Racemic-2-[(1-acryloyl-2-methylpiperidin-4-yl)amino]-N-(4,4,4-trifluorobulyl)-5H-pyrrolo[2,3-b]pyrazine-7-carboxamide] | 3090 | 
8 | 2.08 | 170 | C=CC(=O)N1CCC(Nc2cnc3[nH]cc(C(=O)NCC(C)CC(F)(F)F)c3n2)CC1C (racemic) [Example 310, Racemic-2-[(1-acryloyl-2-methylpiperidin-4-yl)amino]-N-(4,4,4-trifluoro-2-methylbutyl)-5H-pyrrolo[2,3-b]pyrazine-7-carboxamide] | 1200 | 
9 | 2.79 | 325 | C=CC(=O)N1CCC(Oc2cnc3[nH]cc(C(=O)NCC4(O)CCCC4)c3n2)CC1 (racemic) [Example 206, Racemic-2-[(1-acryloylpiperidin-4-yl)oxy]-N-[(1-hydroxycyclopentyl)methyl]-5H-pyrrolo[2,3-b]pyrazine-7-carboxamide] | 3100 | 
10 | 1.39 | 68 | C=CC(=O)N1CCC(Nc2cnc3[nH]cc(C(=O)NCc4ccc(CC)c(C)n4)c3n2)CC1 [Example 184, 2-[(1-acryloylpiperidin-4-yl)amino]-N-[(5-ethyl-6-methylpyridin-2-yl)methyl]-5H-pyrrolo[2,3-b]pyrazine-7-carboxamide] | 1190 | 
11 | 0.59 | 155 | C=CC(=O)N1CC[C@H](Nc2cnc3[nH]cc(C(=O)NC4CC(F)(F)C4)c3n2)[C@H](OC)C1 [Example 277, 2-{[(3R,4S)-1-acryloyl-3-methoxypiperidin-4-yl]amino}-N-(3,3-difluorocyclobutyl)-5H-pyrrolo[2,3-b]pyrazine-7-carboxamide] | 2320 | 
12 | 0.307 | 44 | C=CC(=O)N1CCC(C)(Nc2cnc3[nH]cc(C(=O)NCCCC(F)(F)F)c3n2)CC1 [Example 333, 2-[(1-acryloyl-4-methylpiperidin-4-yl)amino]-N-(4,4,4-trifluorobutyl)-5H-pyrrolo[2,3-b]pyrazine-7-carboxamide] | 774 | 
13 | 9.82 | 1080 | C=CC(=O)N1CCN(c2cnc3[nH]cc(C(=O)NCC)c3n2)CC1(C)C [Example 307, 2-(4-acryloyl-3,3-dimethylpiperazin-1-yl)-N-ethyl-5H-pyrrolo[2,3-b]pyrazine-7-carboxamide] | 2130 | 
14 | 867 | > 10000 | C=CC(=O)N1C[C@H](Nc2ncnc3[nH]ccc23)CC[C@H]1[C@@H](C)O (single isomer, unassigned) [Example 110] |  | 
15 | 3.79 | 857 | C=CC(=O)N1C[C@H](CC)[C@H](Nc2cnc3[nH]cc(C(=O)NCC)c3n2)C1 [Example 241, 2-{[(3S,4S)-1-acryloyl-4-ethylpyrrolidin-3-yl]amino}-N-ethyl-5H-pyrrolo[2,3-b]pyrazine-7-carboxamide] |  | 
16 | 26.4 | 2630 | C=CC(=O)N1CCC(Oc2cnc3[nH]cc(C(=O)NCc4ccccc4)c3c2)CC1 [Example 342, 5-[(1-acryloylpiperidin-4-yl)oxy]-N-benzyl-1H-pyrrolo[2,3-b]pyridine-3-carboxamide] |  | 

Row | SMILES | IC50 [1] [nM] | IC50 [2] [nM] | IC50 [3, 4] [nM] | IC50 ([3]; Homo sapiens, PBMC, read-out: PBMC IL15_pSTAT5_IC50 (nM)) [nM]
17 | C=CC(=O)N1CC[C@H](Oc2cnc3[nH]cc(C(=O)N[C@H](C)COC)c3n2)C1 [Example 54, 2-{[(3S)-1-acryloylpyrrolidin-3-yl]oxy}-N-[(2R)-1-methoxypropan-2-yl]-5H-pyrrolo[2,3-b]pyrazine-7-carboxamide] | 2.49 | 345 |  | 1640
